Test results taken from patent US8074906B2, “Process for milling and preparing powders and compositions produced thereby” (Nanotherapeutics, Inc., priority 2005, dated 2011).
Blank lines part the entries; values can stand above or below the compound they belong to.

Columns and labels:
[1] = particle size by Coulter DELSA 440; type: physicochemical
Excerpt: Oxcarbazepine, an antiepileptic drug marketed as Trileptal® by Novartis, is a white crystalline powder practically insoluble in water. Oxcarbazepine (100%) was milled in 1 kg batches according to the method described in EXAMPLE 1.
[…]

[2] = in vivo pharmacokinetics of taurine formulations in rats; details: rat, oral, read-out: bioavailability (BA)
[3] = moisture uptake (weight change) at room temperature and humidity; type: physicochemical; details: lyophilized simple salt, 24 hours
Method: Initial Zn-DTPA simple salt solutions were prepared and lyophilized, producing a hygroscopic mixture not stable at room temperature and humidity (>10% moisture uptake in 24 hours). Zn-DTPA (trisodium zinc diethylenetriaminepentaacetate) were then mixed with (1) hydroxyl-propyl-methylcellulose (HPMC, K100M, Dow), (2) lactose (USP, Hawkins), and (3) silica dioxide (Sipernat 50S, Degussa) and dried using lyophilization. Preparation procedures include (A) mixing ingredients (75 and 90% Zn-DTPA, 1 g total each) into 10 ml DI water and adjusting pH with NaOH, (B) freezing at −20 C, (C) lyophilizing overnight (shelves at room temp), and (D) measuring the moisture uptake (weight change) at room temperature (20-25° C.) and humidity (40-55%) at 1 month.

- particle size ([1]; Pass 1): 2250 nm
- particle size ([1]; Pass 2): 524 nm
- particle size ([1]; Pass 3): 400 nm
- particle size ([1]; Pass 4): 264 nm
SMILES: NC(=O)N1c2ccccc2CC(=O)c2ccccc21 [Oxcarbazepine]

- bioavailability [2]: 18%
SMILES: NCCS(=O)(=O)O [unformulated taurine, Taurine]

- moisture uptake [3]: > 10%
SMILES: O=C([O-])CN(CCN(CC(=O)[O-])CC(=O)[O-])CCN(CC(=O)[O-])CC(=O)[O-].[Na+].[Na+].[Na+].[Zn+2] [Zn-DTPA, trisodium zinc diethylenetriaminepentaacetate]
